# In the supplement of paper PMC10307832:
# Tests used:
# Experiment in all cases: relative viability (nuclei count vs DMSO), 5 days (fraction); higher = more cells survive
# [1] = compound: Cn1cc(-c2cnn3c(N)c(Br)c([C@@H]4CCCNC4)nc23)cn1 + COc1cc2c(Oc3ccc(NC(=O)C4(C(=O)Nc5ccc(F)cc5)CC4)cc3F)ccnc2cc1OCCCN1CCOCC1 [Foretinib] (partner 0.25 µM)
# Procedure, shortened: (§1)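 The day after seeding in 1536-well plates, lung cancer cell lines were treated by pin tool with a single drug, or with a fixed anchor-drug dose together with five library-drug doses (not always all listed) in √10 steps. After 5 days, a combined fix-and-stain solution (final 0.05% Triton X-100, 1% formaldehyde, 1 ug/ml Hoechst) was added. Nuclei counted on 4× images gave relative viability as treated counts over vehicle counts, reported as the median of duplicate plates.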
# [2] = compound: Cn1cc(-c2cnn3c(N)c(Br)c([C@@H]4CCCNC4)nc23)cn1 + O=C(CCCCCCC(=O)Nc1ccccc1)NO [Vorinostat] (partner 1 µM)
# Procedure, shortened: as §1
# [3] = compound: Cn1cc(-c2cnn3c(N)c(Br)c([C@@H]4CCCNC4)nc23)cn1 + NC(=O)Nc1cc(-c2cccc(F)c2)sc1C(=O)N[C@H]1CCCNC1 [AZD7762] (partner 0.2 µM)
# Procedure, shortened: as §1
# [4] = compound: Cn1cc(-c2cnn3c(N)c(Br)c([C@@H]4CCCNC4)nc23)cn1 + CS(=O)(=O)N1CCN(Cc2cc3nc(-c4cccc5[nH]ncc45)nc(N4CCOCC4)c3s2)CC1 [Pictilisib] (partner 1 µM)
# Procedure, shortened: as §1
Cell Line,relative viability ([1]; first compound 0.05 µM),relative viability ([1]; first compound 0.1581 µM),relative viability ([1]; first compound 0.5 µM),relative viability ([1]; first compound 1.581 µM),relative viability ([1]; first compound 5 µM),relative viability ([2]; first compound 0.05 µM),relative viability ([2]; first compound 0.1581 µM),relative viability ([2]; first compound 0.5 µM),relative viability ([2]; first compound 1.581 µM),relative viability ([2]; first compound 5 µM),relative viability ([3]; first compound 0.05 µM),relative viability ([3]; first compound 0.1581 µM),relative viability ([3]; first compound 0.5 µM),relative viability ([3]; first compound 1.581 µM),relative viability ([3]; first compound 5 µM),relative viability ([4]; first compound 0.05 µM),relative viability ([4]; first compound 0.1581 µM),relative viability ([4]; first compound 0.5 µM),relative viability ([4]; first compound 1.581 µM),relative viability ([4]; first compound 5 µM)
NCI-H441,0.99,1.38,1.13,0.957,0.725,0.759,0.896,0.721,0.429,0.326,1.27,1.32,1.05,1.1,0.956,0.669,0.56,0.478,0.527,0.46
NCI-H1793,0.71,0.806,0.63,0.683,0.518,0.839,0.717,0.856,0.469,0.181,0.598,0.466,0.422,0.397,0.183,0.306,0.411,0.308,0.21,0.191
NCI-H23,1.02,0.987,0.907,0.615,0.53,0.547,0.508,0.424,0.206,0.125,0.253,0.273,0.25,0.162,0.123,0.576,0.506,0.395,0.313,0.198
HARA,1.07,1.05,0.706,0.798,0.207,0.62,0.511,0.511,0.433,0.556,0.401,0.34,0.292,0.26,0.199,0.463,0.345,0.372,0.438,0.207
NCI-H1792,–,–,–,–,–,–,–,–,–,–,0.613,1.3,0.729,–,0.412,0.318,0.288,0.24,0.241,0.164
NCI-H1703,0.334,0.288,0.337,0.196,0.178,–,–,–,–,–,0.0942,0.119,0.139,0.102,0.098,0.237,0.183,0.178,0.156,0.155
NCI-H2342,1.13,1.19,1.09,0.92,1.07,0.636,0.8,0.824,0.68,0.712,0.493,0.491,0.542,0.487,0.29,–,–,–,–,–
CAL-12T,1.17,1.08,0.965,0.789,0.228,0.848,0.775,0.664,0.56,0.228,0.541,0.531,0.538,0.494,0.239,0.416,0.45,0.525,0.389,0.244
NCI-H727,0.949,0.905,0.967,0.882,0.527,1.04,1.17,1.33,1.15,1.13,0.591,0.52,0.512,0.536,0.472,0.411,0.354,0.604,0.276,0.22
NCI-H2085,0.917,0.944,0.986,0.894,0.625,0.801,0.761,0.843,0.725,0.61,0.964,1.12,1.01,0.765,0.719,0.508,0.441,0.57,0.403,0.469
NCI-H1395,0.99,0.94,0.914,0.589,0.455,0.533,0.427,0.556,0.49,0.317,0.397,0.393,0.372,0.372,0.351,0.575,0.671,0.562,0.51,0.585
NCI-H1648,–,–,–,–,–,0.449,0.296,0.313,0.327,0.463,0.607,0.635,0.717,0.649,0.637,–,–,–,–,–
NCI-H460,0.957,1.08,1.03,0.914,0.666,0.926,1.1,0.245,0.405,0.111,0.496,0.579,0.603,0.757,0.519,0.363,0.394,0.357,0.314,0.125
A549,1.03,1.2,0.93,0.664,0.711,–,–,–,–,–,–,–,–,–,–,0.503,0.606,0.434,0.284,0.307
IA-LM,1.19,1.23,1.06,0.861,0.54,1.11,1.12,1.11,0.672,0.64,–,–,–,–,–,0.357,0.372,0.33,0.206,0.196
EKVX,0.749,0.925,0.699,0.816,0.469,0.736,0.723,0.712,0.638,0.691,0.76,0.75,0.711,0.603,0.537,0.507,0.506,0.507,0.469,0.396
ChaGo-K-1,0.937,0.934,0.873,0.888,0.78,0.736,0.785,0.779,0.687,0.753,0.843,0.801,0.866,0.761,0.755,0.708,0.672,0.65,0.617,0.501
NCI-H1755,0.997,0.943,0.91,0.95,0.821,0.869,0.828,0.653,0.642,0.503,0.518,0.511,0.416,0.4,0.307,0.472,0.411,0.452,0.292,0.334
